Test results taken from patent US12629400B2, “Pharmaceutical compositions and methods for treating or preventing bacterial infections in humans and in animals” (LaGray, Inc., priority 2023, dated 2026).
Values after ≈ are worked out from the molar mass of the structure shown. Like-named read-outs stand apart in the source and are kept apart here.

Key:
Type in all cases: cell-based
Staphylococcus aureus = test: Agar dilution antibacterial susceptibility (MIC)
Chlamydia pneumoniae = test: Agar dilution antibacterial susceptibility (MIC)
S. aureus (MRSA) = test: Agar dilution antibacterial susceptibility (MIC); details: Staphylococcus aureus
Enterococcus faecium = test: Agar dilution antibacterial susceptibility (MIC)
S. pneumoniae (DRSP) = test: Agar dilution antibacterial susceptibility (MIC); details: Streptococcus pneumoniae
Streptococcus pneumoniae = test: Agar dilution antibacterial susceptibility (MIC)
Klebsiella pneumoniae = test: Agar dilution antibacterial susceptibility (MIC)
Hemophilus influenzae = test: Agar dilution antibacterial susceptibility (MIC); details: Haemophilus influenzae
Moraxella catarrhalis = test: Agar dilution antibacterial susceptibility (MIC)
Legionella pneumophila = test: microbe, parasite or virus in culture
E. faecium (VRE) = test: Agar dilution antibacterial susceptibility (MIC); details: Enterococcus faecium
Streptococcus pyogenes = test: Agar dilution antibacterial susceptibility (MIC)
Clostridium difficile = test: Agar dilution antibacterial susceptibility (MIC); details: Clostridioides difficile
[1] = S. aureus (MRSA), agar dilution, read-out: MIC
[2] = S. pneumoniae (DRSP), agar dilution, read-out: MIC
[3] = Hemophilus influenzae, agar dilution, read-out: MIC
[4] = E. faecium (VRE), agar dilution, read-out: MIC

Structure (SMILES): O=C(O)c1cn(C2CC2)c2cc(N3CCNCC3)c(F)cc2c1=O [Ciprofloxacin, ciprofloxacin]
- MIC (Staphylococcus aureus; agar dilution, read-out: MIC): 0.06 µg/mL (≈ 0.181 µM)
- MIC (Chlamydia pneumoniae; agar dilution, read-out: MIC): 0.12 µg/mL (≈ 0.362 µM)
- MIC (S. aureus (MRSA); [1]): 32 µg/mL (≈ 96.6 µM)
- MIC (Enterococcus faecium; agar dilution, read-out: MIC): 0.5 µg/mL (≈ 1.51 µM)
- MIC (S. pneumoniae (DRSP); [2]): 2 µg/mL (≈ 6.04 µM)
- MIC (Streptococcus pneumoniae; agar dilution, read-out: MIC): 0.13 µg/mL (≈ 0.392 µM)
- MIC (Klebsiella pneumoniae; agar dilution, read-out: MIC): 0.06 µg/mL (≈ 0.181 µM)
- MIC (Hemophilus influenzae; [3]): 0.15 µg/mL (≈ 0.453 µM)
- MIC (Moraxella catarrhalis; agar dilution, read-out: MIC): 0.25 µg/mL (≈ 0.754 µM)
- MIC (Legionella pneumophila): 0.06 µg/mL (≈ 0.181 µM)
- MIC (E. faecium (VRE); [4]): 2 µg/mL (≈ 6.04 µM)
- MIC (Streptococcus pyogenes; agar dilution, read-out: MIC): 0.5 µg/mL (≈ 1.51 µM)

Structure (SMILES): CN(C)c1ccc(O)c2c1C[C@H]1C[C@H]3[C@H](N(C)C)C(O)=C(C(N)=O)C(=O)[C@@]3(O)C(O)=C1C2=O [Minocycline, minocycline]
- MIC (Staphylococcus aureus; agar dilution, read-out: MIC): 0.25 µg/mL (≈ 0.546 µM)
- MIC (Chlamydia pneumoniae; agar dilution, read-out: MIC): 0.5 µg/mL (≈ 1.09 µM)
- MIC (S. aureus (MRSA); [1]): 8 µg/mL (≈ 17.5 µM)
- MIC (Enterococcus faecium; agar dilution, read-out: MIC): 0.5 µg/mL (≈ 1.09 µM)
- MIC (S. pneumoniae (DRSP); [2]): 16 µg/mL (≈ 35 µM)
- MIC (Streptococcus pneumoniae; agar dilution, read-out: MIC): 0.5 µg/mL (≈ 1.09 µM)
- MIC (Klebsiella pneumoniae; agar dilution, read-out: MIC): 0.13 µg/mL (≈ 0.284 µM)
- MIC (Hemophilus influenzae; [3]): 0.25 µg/mL (≈ 0.546 µM)
- MIC (Moraxella catarrhalis; agar dilution, read-out: MIC): 0.03 µg/mL (≈ 0.0656 µM)
- MIC (Legionella pneumophila): 0.12 µg/mL (≈ 0.262 µM)
- MIC (E. faecium (VRE); [4]): 16 µg/mL (≈ 35 µM)
- MIC (Streptococcus pyogenes; agar dilution, read-out: MIC): 0.12 µg/mL (≈ 0.262 µM)
- MIC (Clostridium difficile): 0.5 µg/mL (≈ 1.09 µM)

Structure (SMILES): CN[C@H](CC(C)C)C(=O)N[C@H]1C(=O)N[C@@H](CC(N)=O)C(=O)N[C@H]2C(=O)N[C@H]3C(=O)N[C@H](C(=O)N[C@H](C(=O)O)c4cc(O)cc(O)c4-c4cc3ccc4O)[C@H](O)c3ccc(c(Cl)c3)Oc3cc2cc(c3O[C@@H]2O[C@H](CO)[C@@H](O)[C@H](O)[C@H]2O[C@H]2C[C@](C)(N)[C@H](O)[C@H](C)O2)Oc2ccc(cc2Cl)[C@H]1O [Vancomycin, vancomycin]
- MIC (Staphylococcus aureus): 0.13 µg/mL (≈ 0.0897 µM)
- MIC (Chlamydia pneumoniae): 0.5 µg/mL (≈ 0.345 µM)
- MIC (S. aureus (MRSA); MRSA): 2 µg/mL (≈ 1.38 µM)
- MIC (Enterococcus faecium): 1 µg/mL (≈ 0.69 µM)
- MIC (S. pneumoniae (DRSP)): 0.5 µg/mL (≈ 0.345 µM)
- MIC (Streptococcus pneumoniae): 0.25 µg/mL (≈ 0.173 µM)
- MIC (Klebsiella pneumoniae): 0.5 µg/mL (≈ 0.345 µM)
- MIC (Hemophilus influenzae): 0.06 µg/mL (≈ 0.0414 µM)
- MIC (Moraxella catarrhalis): 0.01 µg/mL (≈ 0.0069 µM)
- MIC (Legionella pneumophila): 0.06 µg/mL (≈ 0.0414 µM)
- MIC (E. faecium (VRE); VRE): 125 µg/mL (≈ 86.3 µM)
- MIC (Streptococcus pyogenes): 0.06 µg/mL (≈ 0.0414 µM)
- MIC (Clostridium difficile): 0.5 µg/mL (≈ 0.345 µM)
